Patent US9359322B2, “C-linked glucuronide of N-(4-hydroxybenzyl) retinone, analogs thereof, and methods of using the same to inhibit neoplastic cell growth” (Wisconsin Alumni Research Foundation, priority 2005, dated 2016)
Marks after values point to notes of the source that are not given here.

Key:
[1] = test system: CYP26B1 mRNA; experiment: Induction of CYP26B1 mRNA in lung (Q-PCR); assay type: in vivo, rat; conditions: at sacrifice, retinoid-fed rats, 2 mmol/kg diet; data not shown
[2] = Plasma retinol level (HPLC); assay type: in vivo, rat; conditions: 2 mmol/kg diet
Experimental: (§1) Baseline measurement of initial tumor sizes, numbers and rat body weights were determined immediately before commencement of treatments, and final measurements were recorded just prior to sacrifice of the animals. Animals were palpated for tumors twice weekly and tumor diameters were measured weekly by a micrometer caliper. Tumor volumes were calculated using the formula [V= 4/3 πr^3] where r is one-half the mean of the sum of the largest diameter and the axis at right angle to it. All tumors as well as lungs, liver, kidney and femur were excised at the end of the experiment for chemical and histopathological evaluation. Blood samples were also taken from each animal for determination of plasma retinol and triglyceride levels.
(§2) Plasma Retinoid Assay. To 500 μL of plasma was added 150 μL of ethanol containing 0.75 μg of internal standard (N-(4-chlorophenyl) retinamide). After mixing 30 sec., 500 μL of ethyl acetate was added followed by 1 min. of mixing and centrifugation for 5 minutes at 1000 rpm in an IEC CL centrifuge. The ethyl acetate layer was removed and syringe filtered through a 0.45 um filter. The ethyl acetate extraction was repeated two more times. The combined extracts were evaporated and the residue reconstituted in 100 μL of methanol. The methanol extract (20 μL) was analyzed by HPLC on a Beckman Instruments model 127 instrument equipped with a model 166 UV detector. Chromatography was done on a precolumn equipped 250×4.6 mm Bechman Ultrasphere ODS column with an 85% methanol/water mobile phase (both containing 10 mM ammonium acetate) flowing at 1 mL/min. Analysis for both internal standard and retinol was conducted at 350 nm and internal standard recoveries and retinol levels were determined by comparison with standard curves, with adjustment of the retinol level based on recovery. Recoveries of internal standard averaged ca. 78%. […] In the 4-HPR treated group, plasma levels of this retinoid were evaluated simultaneously in the same samples as above. In order to avoid interfering substances, plasma treatment retinoid levels for RA and 4-HBRCG were measured using the above system and a step gradient of 75% methanol for 15 min. followed by 85% methanol for 40 minutes.

[3] = test system: DMBA-induced rat mammary tumor; experiment: DMBA-induced rat mammary tumor model, retinoid-containing diets; assay type: in vivo
Experimental: Preliminary evaluation of the mammary tumor chemotherapeutic activity of 4-HBRCG (7) was conducted, and its toxicity profile was also assessed. As previously described,^7, 12 tumor-bearing female rats (treated ca. 50 days earlier with 7,12-dimethylbenz(a)anthracene [DMBA]) were fed the control or retinoid-containing diets (RA (2), 4-HPR (3) or 4-HBRCG (7)) at 2 mmole/kg diet for 22 days.
Animal Studies: Mammary tumors were induced by intragastric intubation of 50-day old female Sprague-Dawley rats (Harlan Industries, Indianapolis, Ind.) with a single dose of 15 mg DMBA in 1.0 ml of sesame oil per rat. The rats were then maintained on a powdered Teklad 22/5 rodent chow diet (W) 8640 (Harlan Industries, Indianapolis, Ind.), and allowed food and water ad libitum. Four months later, rats which had developed palpable tumors were randomly assigned to the experimental groups (4 rats/group). The retinoid-treated groups were fed diets supplemented with 2 mmol/kg diet of atRA, 4-HPR, or 4-HBRCG, respectively. The retinoids were added to the diet in a vehicle consisting of 25 ml of ethanol: tricaprylin (1:4 v/v) plus 2% (w/v) of α-tocopherol as previously described.^9 This vehicle was also added to the control diet. The additives were blended into the chow diets using a Hobart food mixer. The diets were fed in stainless steel feeders designed with food hoppers. The food was replaced weekly with freshly prepared diets. Food consumption was determined once weekly, and from that the average daily consumption/rat was estimated. These diets were continuously fed for 22 days. Animals were also weighted weekly and monitored for general health status and signs of possible toxicity due to treatment.
as §1

[4] = Femur bone mineral content; assay type: in vivo, rat; conditions: end of feeding study; FIG. 2B
Excerpt: Bone Mineral Content. The femur was disarticulated from the leg, and the adhering soft tissue was removed by dissection. Femurs were scanned using the Lunar PIXImus 2 system (Model X2608, General Electric using the LUNAR software version 1.45), and control measurements were made using the small animal quality control phantom. Femurs were scanned 5 times each with re-positioning at each measure. The average value of the bone mineral content (BMC) in grams for each animal is reported as one independent measure.

[5] = test system: MCF-7 human breast cancer cells; experiment: Growth inhibition of MCF-7 human breast cancer cells; assay type: cell-based; conditions: 10^−5 M, 8-day period; FIG. 5
Experimental: Inhibition of MCF-7 human breast cancer cell growth over an 8-day period was used as a means to assess the activity of 4-HBRCG and the analog 4-HBRCGlucose.
Growth inhibition of MCF-7 human breast cancer cells. MCF-7 cells were obtained from the American Type Culture Collection, Manassas, Va. They were maintained in DMEM medium supplemented with 4 g/L glucose, 3.7 g/L sodium bicarbonate and 10% heat-inactivated fetal calf serum. Cells were passaged into 12-well plates, cultured for 24 hours, after which time they were dosed with vehicle (0.2% ethanol) or retinoids; medium was changed and fresh vehicle or retinoids were added daily. Cells were harvested and the number of live cells was assessed using fluorescein diacetate, which yields a fluorescent product upon cleavage by metabolically active cells. Using fluorescent microscopy, at least 200 cells/well were counted with a hemacytometer.

[6] = Terminal plasma drug levels (plasma retinoid assay, HPLC); assay type: in vivo, rat; conditions: day 22 of treatment; 2 mmol/kg diet; ± SEM
Experimental: as §2

[7] = test system: CYP26A1 mRNA; experiment: Induction of CYP26A1 mRNA in liver (Q-PCR); assay type: in vivo, rat; conditions: at sacrifice, retinoid-fed rats, 2 mmol/kg diet; FIG. 4
[8] = number of individual tumors, 2 mmol/kg diet, 22 days

Plasma retinol ([2]; day 22 of treatment, mean ± SEM): 0.40 ± 0.04 µg/mL
Effect on femur bone mineral content vs control [4]: showed no such effect
Plasma retinoid concentration (terminal plasma drug level) [6]: 0.10 ± 0.01 µg/mL
SMILES: CC1=C(/C=C/C(C)=C/C=C/C(C)=C/C(=O)Cc2ccc(CC3OC(C(=O)O)C(O)C(O)C3O)cc2)C(C)(C)CCC1 [4-HBRCG (7), 2,6-Anhydro-7-deoxy-7-[4-(retinoylmethyl)-phenyl]-L-glycero-L-gulo-heptinoic acid]
Induction of CYP26B1 mRNA in lung [1]: did not induce these cytochrome p450 mRNAs
Effect on blood retinol [2]: did not produce any significant reduction in blood retinol
% Change in tumor volume from baseline ([3]; 2 mmol/kg diet for 22 days): −33 ^d %
Final tumor volume ([3]; 2 mmol/kg diet for 22 days, mean ± SEM): 0.08 ± 0.05 cm^3
Initial tumor volumes ([3]; baseline before treatment, mean ± SEM): 0.12 ± 0.06 cm^3
Complete regression (tumors that totally disappeared) [3, 8]: 2
No effect [3, 8]: 2
Partial regression (tumors with 25-75% decrease in volume) [3, 8]: 6
New tumors ([3]; number of tumors, 2 mmol/kg diet, 22 days): 0
Effect on number of live MCF-7 cells [5]: reduction in the number of live cells
Induction of CYP26A1 mRNA in liver [7]: did not induce these cytochrome p450 mRNAs
